pIC50: −log10 of the molar value. The source made the active and inactive calls. No cut-off for these calls is given here.
Assays:
MDA-MB-231 [1] = experiment: Induction of apoptosis in human MDA-MB-231 cells assessed as viable cells at 1 uM incubated for 24 hrs by annexinV-FITC and propidium iodide staining based flow cytometric analysis (reference value: 95.1%); type: functional; settings: MDA-MB-231, 24 h, read-out: Activity
MDA-MB-231 [2] = experiment: Antiproliferative activity against human MDA-MB-231 cells assessed as reduction in cell viability incubated for 48 hrs by MTT assay; type: functional, cell-based; settings: MDA-MB-231, 48 h
MCF7 = experiment: Antiproliferative activity against human MCF7 cells assessed as reduction in cell viability incubated for 48 hrs by MTT assay; type: functional, cell-based; settings: MCF7, 48 h
HCT-116 = experiment: Potency index, ratio of IC50 of BTP to ratio of IC50 of compound for antiproliferative activity against human HCT116 cells assessed as reduction in cell viability incubated for 48 hrs by MTT assay; type: functional
HepG2 = experiment: Potency index, ratio of IC50 of BTP to ratio of IC50 of compound for antiproliferative activity against human HepG2 cells assessed as reduction in cell viability incubated for 48 hrs by MTT assay; type: functional
L02 = experiment: Cytotoxicity against human LO2 cells assessed as reduction in cell viability incubated for 48 hrs by MTT assay; type: cell-based; settings: L02, 48 h
[3] = Selectivity index, ratio of IC50 for human MCF10A cells to IC50 for human MDA-MB-231 cells; type: toxicity; settings: MCF10A cells versus MDA-MB-231 cells, read-out: Ratio IC50
[4] = Selectivity index, ratio of IC50 for human L02 cells to IC50 for human HepG2 cells; type: toxicity; settings: L02 cells versus HepG2 cells, read-out: Ratio IC50
MDA-MB-231 [5] = experiment: Induction of apoptosis in human MDA-MB-231 cells assessed as late apoptotic cells at 1 uM incubated for 24 hrs by annexinV-FITC and propidium iodide staining based flow cytometric analysis (reference value: 1.0%); type: functional
MDA-MB-231 [6] = experiment: Induction of apoptosis in human MDA-MB-231 cells assessed as necrotic cells at 1 uM incubated for 24 hrs by annexinV-FITC and propidium iodide staining based flow cytometric analysis (reference value: 0.8%); type: functional
MDA-MB-231 [7] = experiment: Induction of apoptosis in human MDA-MB-231 cells assessed as late apoptotic cells at 2 uM incubated for 24 hrs by annexinV-FITC and propidium iodide staining based flow cytometric analysis (reference value: 1.0%); type: functional
MDA-MB-231 [8] = experiment: Induction of apoptosis in human MDA-MB-231 cells assessed as increase in cleaved caspase-3 levels at 1 to 4 uM incubated for 24 hrs by Western blot analysis; type: functional, cell-based
[9] = Drug accumulation in mitochondria of human MCF7 cells at 5 uM incubated for 60 mins by mitotracker red staining based confocal microscopy; type: ADME; settings: mcf7, 1 h
MDA-MB-231 [10] = experiment: Induction ROS accumulation in human MDA-MB-231 cells after 24 hrs by DCFH-DA staining-based flow cytometric analysis; type: functional, cell-based
[11] = target: Signal transducer and activator of transcription 3 (Homo sapiens) (UniProt P40763); experiment: Inhibition of STAT3 in human MDA-MB-231 cells assessed as decrease in STAT3 phosphorylation at Tyr705 residue incubated for 24 hrs by Western blot analysis; type: cell-based
Chain of Signal transducer and activator of transcription 3 (Homo sapiens) (P40763 whole entry): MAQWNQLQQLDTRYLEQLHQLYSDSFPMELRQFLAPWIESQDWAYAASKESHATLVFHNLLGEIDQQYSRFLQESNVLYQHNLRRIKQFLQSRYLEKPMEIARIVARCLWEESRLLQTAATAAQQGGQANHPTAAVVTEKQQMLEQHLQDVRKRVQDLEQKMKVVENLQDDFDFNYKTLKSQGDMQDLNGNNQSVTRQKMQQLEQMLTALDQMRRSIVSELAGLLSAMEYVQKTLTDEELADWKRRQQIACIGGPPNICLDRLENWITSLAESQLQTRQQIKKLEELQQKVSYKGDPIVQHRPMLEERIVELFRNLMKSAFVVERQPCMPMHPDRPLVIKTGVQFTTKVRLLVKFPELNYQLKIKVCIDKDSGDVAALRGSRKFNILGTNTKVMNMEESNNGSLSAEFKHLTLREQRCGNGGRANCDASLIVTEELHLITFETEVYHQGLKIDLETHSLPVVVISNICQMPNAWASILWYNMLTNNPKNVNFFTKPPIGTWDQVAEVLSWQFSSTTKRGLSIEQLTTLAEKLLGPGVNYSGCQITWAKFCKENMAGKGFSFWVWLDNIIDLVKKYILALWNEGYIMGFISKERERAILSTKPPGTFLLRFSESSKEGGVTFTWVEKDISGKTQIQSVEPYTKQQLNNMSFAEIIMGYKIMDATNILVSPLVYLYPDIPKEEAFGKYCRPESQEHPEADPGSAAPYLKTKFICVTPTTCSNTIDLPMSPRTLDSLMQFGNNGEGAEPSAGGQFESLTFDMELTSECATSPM

[12] = target: Signal transducer and activator of transcription 3 (Homo sapiens) (UniProt P40763); experiment: Inhibition of STAT3 in human MDA-MB-231 cells assessed as decrease in STAT3 phosphorylation at Ser727 residue incubated for 24 hrs by Western blot analysis; type: cell-based
[13] = target: Tyrosine-protein kinase JAK2 (Homo sapiens) (UniProt O60674); experiment: Inhibition of JAK2 in human MDA-MB-231 cells assessed as reduction in JAK2 phosphorylation at 1 to 4 uM incubated for 24 hrs by Western blot analysis; type: cell-based
Chain of Tyrosine-protein kinase JAK2 (Homo sapiens) (O60674 whole entry): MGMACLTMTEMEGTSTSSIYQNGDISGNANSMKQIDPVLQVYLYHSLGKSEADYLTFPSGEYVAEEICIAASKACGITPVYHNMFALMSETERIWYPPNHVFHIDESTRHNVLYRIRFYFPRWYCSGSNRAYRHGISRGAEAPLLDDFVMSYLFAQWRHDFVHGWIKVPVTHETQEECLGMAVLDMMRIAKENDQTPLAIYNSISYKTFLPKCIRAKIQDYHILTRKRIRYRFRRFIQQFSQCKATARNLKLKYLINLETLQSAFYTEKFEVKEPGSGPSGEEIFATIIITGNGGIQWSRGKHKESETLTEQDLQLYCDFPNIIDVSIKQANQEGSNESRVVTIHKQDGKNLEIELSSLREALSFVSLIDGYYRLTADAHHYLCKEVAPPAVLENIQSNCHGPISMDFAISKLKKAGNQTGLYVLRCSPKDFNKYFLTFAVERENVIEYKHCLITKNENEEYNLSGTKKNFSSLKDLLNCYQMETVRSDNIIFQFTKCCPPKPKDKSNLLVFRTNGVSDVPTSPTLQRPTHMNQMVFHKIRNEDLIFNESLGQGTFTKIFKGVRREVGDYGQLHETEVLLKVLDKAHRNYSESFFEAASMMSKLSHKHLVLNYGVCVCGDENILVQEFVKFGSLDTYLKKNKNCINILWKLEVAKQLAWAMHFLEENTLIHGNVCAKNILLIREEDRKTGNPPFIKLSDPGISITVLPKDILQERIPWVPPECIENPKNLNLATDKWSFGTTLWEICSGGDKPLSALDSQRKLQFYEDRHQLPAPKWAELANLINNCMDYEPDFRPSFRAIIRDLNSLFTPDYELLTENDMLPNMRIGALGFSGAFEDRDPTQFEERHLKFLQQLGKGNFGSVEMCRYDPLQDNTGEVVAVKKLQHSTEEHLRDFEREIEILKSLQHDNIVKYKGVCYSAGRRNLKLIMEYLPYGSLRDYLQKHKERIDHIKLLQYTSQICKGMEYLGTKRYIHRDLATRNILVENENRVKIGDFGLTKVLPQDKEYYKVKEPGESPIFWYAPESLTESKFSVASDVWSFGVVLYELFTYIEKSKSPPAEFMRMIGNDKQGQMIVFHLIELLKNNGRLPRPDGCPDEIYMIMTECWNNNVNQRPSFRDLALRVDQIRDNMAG

[14] = target: Mitogen-activated protein kinase; ERK1/ERK2 (Homo sapiens) (UniProt P27361+P28482); experiment: Inhibition of ERK 1/2 in human MDA-MB-231 cells assessed as reduction in ERK 1/2 phosphorylation at 1 to 4 uM incubated for 24 hrs by Western blot analysis; type: cell-based
Chain of Mitogen-activated protein kinase; ERK1/ERK2 (Homo sapiens) (P27361 whole entry, looked up): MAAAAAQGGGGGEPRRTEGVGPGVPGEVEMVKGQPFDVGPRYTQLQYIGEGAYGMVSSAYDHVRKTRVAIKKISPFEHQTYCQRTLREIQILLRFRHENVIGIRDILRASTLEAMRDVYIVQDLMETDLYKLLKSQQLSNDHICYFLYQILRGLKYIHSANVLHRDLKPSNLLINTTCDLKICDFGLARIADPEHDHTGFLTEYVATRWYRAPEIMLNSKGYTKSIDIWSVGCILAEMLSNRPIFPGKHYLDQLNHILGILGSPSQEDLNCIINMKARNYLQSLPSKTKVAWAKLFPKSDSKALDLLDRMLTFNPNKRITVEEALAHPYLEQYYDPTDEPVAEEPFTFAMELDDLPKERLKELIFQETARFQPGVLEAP
Chain of Mitogen-activated protein kinase; ERK1/ERK2 (Homo sapiens) (P28482 whole entry, looked up): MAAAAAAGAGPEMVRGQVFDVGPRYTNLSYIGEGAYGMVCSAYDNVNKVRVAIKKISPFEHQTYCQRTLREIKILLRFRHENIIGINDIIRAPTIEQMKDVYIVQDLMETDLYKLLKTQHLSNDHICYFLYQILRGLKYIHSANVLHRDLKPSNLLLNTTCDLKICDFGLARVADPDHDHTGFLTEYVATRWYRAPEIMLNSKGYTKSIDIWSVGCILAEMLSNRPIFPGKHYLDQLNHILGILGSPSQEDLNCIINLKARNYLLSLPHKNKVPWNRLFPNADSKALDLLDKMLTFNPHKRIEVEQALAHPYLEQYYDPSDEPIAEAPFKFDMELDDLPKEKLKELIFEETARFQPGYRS

[15] = target: Signal transducer and activator of transcription 3 (Homo sapiens) (UniProt P40763); experiment: Inhibition of STAT3 in human MDA-MB-231 cells assessed as decrease in Bcl2 protein expression incubated for 24 hrs by Western blot analysis; type: cell-based
[16] = target: Signal transducer and activator of transcription 3 (Homo sapiens) (UniProt P40763); experiment: Inhibition of STAT3 in human MDA-MB-231 cells assessed as decrease in cyclin D1 protein expression incubated for 24 hrs by Western blot analysis; type: cell-based
4T1 [17] = experiment: Antitumor activity against mouse 4T1 cells implanted in BALB/c mouse assessed as reduction in tumor weight at 10 mg/kg, ip for 14 days; type: functional; settings: 4T1, ip, 336 h
4T1 [18] = experiment: Antitumor activity against mouse 4T1 cells implanted in BALB/c mouse assessed as reduction in tumor weight at 20 mg/kg, ip for 14 days; type: functional; settings: 4T1, ip, 336 h
MDA-MB-231 [19] = experiment: Inhibition of colony formation in human MDA-MB-231 cells at 2 uM treated for 24 hrs and measured after 10 to 14 days by crystal violet staining based assay; type: functional
4T1 [20] = experiment: Reduction in STAT3 phosphorylation at Tyr705 residue in mouse 4T1 cells implanted in BALB/c mouse at 10 to 20 mg/kg, ip for 14 days by Western blot analysis; type: functional, organism-based

CCN(CC)c1ccc2cc(C(=O)N3CCN(C(=O)C4=Cc5c(Br)cccc5S4(=O)=O)CC3)c(=O)oc2c1
viability at 1 µM (MDA-MB-231 [1]): 92% | pIC50 (MDA-MB-231 [2]): 5.84 | pIC50 (MCF7): 5.48 | Ratio IC50 (HCT-116): 4.6 - 19 | Ratio IC50 (HepG2): 4.6 - 19 | pIC50 (L02): 4.45 | selectivity ratio [3]: 10.2 | selectivity ratio [4]: 12.4 | Activity (MDA-MB-231 [5]): 1.2% | Activity (MDA-MB-231 [6]): 1.3% | Activity (MDA-MB-231 [7]): 1.8% | Activity (MDA-MB-231 [8]): Active | Drug uptake [9]: Active | Activity (MDA-MB-231 [10]): Dose-dependent effect | inhibition [11]: Dose-dependent effect | inhibition [12]: Dose-dependent effect | inhibition [13]: inactive | inhibition [14]: inactive | inhibition [15]: Dose-dependent effect | inhibition [16]: Dose-dependent effect | inhibition in vivo at 10 mg/kg (4T1 [17]): 39.7% | inhibition in vivo at 20 mg/kg (4T1 [18]): 56.9% | inhibition at 2 µM (MDA-MB-231 [19]): 100% | inhibition (4T1 [20]): Active
